Entries after “also recorded” stand apart in the source; their conditions may differ.
Assays:
[1] = test system: N2a-SwedAPP cells; experiment: Immunofluorescence of p-APP in endosomal compartments (Rab5); assay type: cell-based, mouse; settings: 20 μM BBR, 3 h
Method: N2a-SweAPP cells are mouse neuroblastoma N2a cells stably transfected with human Swedish mutant APP695, and were gifts from Dr. Gopal Thinakaran (University of Chicago, Chicago Ill.). Cells were maintained in Dulbecco's modified Eagle's medium (DMEM) (Invitrogen, Carlsbad, Calif.) supplemented with 10% fetal bovine serum, penicillin and streptomycin and 200 μg/mL G418 (Invitrogen). Cells were cultured either in multiwell dishes or on 60 mm tissue culture plates in DMEM 10% with FBS Cell cultures were incubated at 37° C. in a humid 5% CO2/ 95% air environment. After cells were grown close to confluence, they were treated with/without different concentrations of BBR in DMEM (1% FBS) for 24 h. […]
For higher resolution microscopy, images were acquired using an Olympus IX70 Delta Vision microscopy system (Applied Precision, Issaquah, Wash.) with a 100×1.5 numerical aperture oil immersion lens. […] Subsequently serial Z-stacks of fluorescence images at 0.2-μm interval were acquired and deconvolved via a controlled iterative algorithm to generate high-resolution images of cells using […] (Applied Precision).

[2] = test system: TgCRND8 mice; experiment: Morris water maze (visible platform, hidden platform, probe trials); assay type: in vivo, mouse
[3] = test system: TgCRND8 mice; experiment: Thioflavin S staining of fibrillar parenchymal and cerebrovascular (CAA) Aβ; assay type: in vivo, mouse; settings: for reduction in ThioS-positive fibrillar Aβ: relative to untreated control TgCRND8
[4] = test system: TgCRND8 mice; experiment: Microgliosis (Iba-1 burden) and astrocytosis (GFAP burden) immunohistochemistry; assay type: in vivo, mouse
[5] = BBR levels in TgCRND8 brain tissue by LC/MS after oral administration; assay type: in vivo, mouse; settings: for concentration at 3 hr: TgCRND8, mouse, brain, po, 3 hr after p.o. administration, LC/MS
Method: To determine how oral administration of BBR influences the concentration of BBR in the brain, liquid chromatography and mass spectrometry techniques (LC/MS) are used to analyze changes in BBR levels in the TgCRND8 brain tissue in a separate experiment. BBR levels in the brain are found to be 0.88±0.27 and 1.67±0.73 μM for low and high doses of BBR respectively after 3 hr p.o. administration.

[6] = molecular target: Aβ1-42 fibril formation (Homo sapiens, UniProt P05067); settings: BBR 20 μM, in vitro; cited from earlier work
Sequence of Aβ1-42 fibril formation (P05067 672-713 limits assumed): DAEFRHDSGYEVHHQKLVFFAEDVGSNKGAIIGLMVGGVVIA

[7] = test system: TgCRND8 mice; experiment: Morphometric analysis of Aβ plaque size subsets; assay type: in vivo, mouse
[8] = Regular oral BBR treatment of TgCRND8 mice: body weight and side effects; settings: BBR 25 or 100 mg/kg/d orally for 4 months
[9] = BBR-treated TgCRND8, dose not stated (discussion)

Compound: COc1ccc2cc3[n+](cc2c1OC)CCc1cc2c(cc1-3)OCO2 [BBR, 5,6-dihydro-9,10-dimethoxybenzo[g]-1,3-benzodioxolo[5,6-a]quinolizinium]
- pAPP staining in the endosomal compartments [1]: markedly reduced
- probe trial: time spent in the target quadrant ([2]; 25 and 100 mg/kg/d vs vehicle-treated TgCRND8): highest duration; also recorded: prevent decrease in the time spent in the target quadrant
- probe trial: spatial bias ([2]; BBR 25 mg/Kg, all probe trials): significantly increases their spatial bias
- hidden platform path distance (swim path) ([2]; low and high doses of BBR (25 and 100 mg/kg/d) vs vehicle-treated TgCRND8): significantly reduced swim path; also recorded: reduced the path distance; also recorded: show a reduction in swimming distance
- ThioS-labeled blood vessels (CAA), cortical area covered ([3]; 25 mg/Kg/d (vehicle 1.44±0.17%)): 0.70% ±0.11
- reduction in ThioS-positive fibrillar Aβ ([3]; 25 mg/kg/d): 40%
- ThioS-labeled blood vessels (CAA), cortical area covered ([3]; 100 mg/Kg/d (vehicle 1.44±0.17%)): 0.89%±0.02
- reduction in ThioS-positive fibrillar Aβ ([3]; 100 mg/kg/d): 51%
- GFAP burden (astrocytosis) reduced to % relative to vehicle-treated ([4]; 25 mg/Kg): 54%
- Iba-1 burden (microgliosis) reduced to % relative to vehicle-treated ([4]; 25 mg/Kg/d): 45%
- GFAP burden (astrocytosis) reduced to % relative to vehicle-treated ([4]; 100 mg/Kg): 28%
- Iba-1 burden (microgliosis) reduced to % relative to vehicle-treated ([4]; 100 mg/Kg/d): 27%
- decrease in astrocytosis [4, 9]: 54%
- reduction in microgliosis [4, 9]: 45%
- concentration at 3 hr ([5]; 25 mg/kg/d, low dose of BBR): 880 ± 270 nM
- concentration at 3 hr ([5]; 100 mg/kg/d, high dose of BBR): 1670 ± 730 nM
- passage through the blood-brain barrier ([5]; mouse, in vivo): readily passes through the blood-brain barrier
- inhibition of Aβ1-42 fibril formation [6]: 36.3%
- percentage reduction in large (>50) amyloid plaque subset ([7]; 25 mg/Kg): 60%
- percentage reduction in medium (25-50 μm) amyloid plaque subset ([7]; 25 mg/Kg): 41%
- percentage reduction in small sized (<25 μm) amyloid plaque subset ([7]; 25 mg/Kg): 35%
- percentage reduction in total amyloid plaque number ([7]; 25 mg/Kg): 37%
- reduction of amyloid plaque subsets ([7]; 100 mg/Kg/d): 21-28%
- animal body weight [8]: does not significantly influence animal body weight

From patent US20130237556A1, “BERBERINE ALKALOID AS A MEDICAMENT FOR PREVENTION AND TREATMENT OF NEURAL DISEASE” (HONG KONG BAPTIST UNIVERSITY, priority 2012, published 2013)
